Values after ≈ are worked out from the molar mass of the structure shown. “Also recorded” adds a separate entry of the source.
Key:
F4b [1] = assay type: cell-based, Legionella pneumophila
wild type L. pneumophila = assay type: cell-based, Legionella pneumophila
L. pneumophila [2] = assay: microbe, parasite or virus in culture; assay type: cell-based, Legionella pneumophila; details: for MIC: Legionella pneumophila, 48 h, read-out: MIC (minimum concentration at which no growth occurred)
L. pneumophila [3] = assay type: cell-based, Legionella pneumophila
F4b [4] = assay type: cell-based, Legionella pneumophila; remark: listed apart in the source
F4b in human macrophages = assay type: cell-based, Legionella pneumophila
HL-60 cells = details: human
F4b [5] = assay type: cell-based, Legionella pneumophila; remark: listed apart in the source
P. aeruginosa = assay type: cell-based, Psuedomonas aeruginosa
[6] = in vivo; cited from earlier work
L. pneumophila [7] = assay type: cell-based, Legionella pneumophila; remark: listed apart in the source
[8] = test system: L. pneumophila in human macrophages; assay type: cell-based, Legionella pneumophila
[9] = test system: L. pneumophila in HL-60 cells; assay type: cell-based, Legionella pneumophila
[10] = test system: L. pneumophila in mouse J774 macrophages; assay type: cell-based, Legionella pneumophila
L. pneumophila [11] = assay type: cell-based, Legionella pneumophila; remark: listed apart in the source
[12] = test system: L. pneumophila in human monocytes; assay type: cell-based, Legionella pneumophila
[13] = test system: L. pneumophila infected HL-60 cells; assay type: cell-based, human
F4b in HL-60 cells = assay type: cell-based, Legionella pneumophila

Structure (SMILES): NNC(=O)c1ccncc1 [isoniazid]
- sensitivity (zone of inhibition) (F4b [1]): sensitive
- sensitivity (zone of inhibition) (wild type L. pneumophila): no sensitivity

Structure (SMILES): CC(C)(Oc1ccc(Cl)cc1)C(=O)O [clofibric acid]
- MIC (L. pneumophila [2]): 125 µg/mL (≈ 582 µM)

Structure (SMILES): CCc1cc(C(N)=S)ccn1 [ethionamide]
- sensitivity of wild type L. pneumophila relative to F4b (zone of inhibition) (wild type L. pneumophila): twice as sensitive

Structure (SMILES): Cc1ccc(C)c(OCCCC(C)(C)C(=O)O)c1 [GFZ, Gemfibrozil]
- inclusion accumulation (EM) (L. pneumophila [3]): accumulated granules
- effect on fatty acid profile (F4b [4]): did not affect the fatty acid profile
- inhibition of intracellular growth (CFU) (F4b in human macrophages): one log
- effect on HL-60 cell viability (HL-60 cells): did not affect HL-60 cell viability
- inclusion accumulation (EM) (F4b [5]): no apparent difference in the number or size of inclusions
- susceptibility to GFZ (P. aeruginosa): not susceptible
- concentration of gemfibrozil used in humans treated for hyperlipidemia [6]: 15000 to 30000 ng/mL
- effect on fatty acid profile (L. pneumophila [7]): decreased peak areas for several typical L. pneumophila fatty acids
- inhibition of intracellular growth (CFU) [8]: partially inhibited
- inhibition of intracellular growth (CFU) [9]: partially inhibited; also recorded: three logs
- growth in AYE broth in presence of GFZ (L. pneumophila [2]): inhibited L. pneumophila growth
- MIC (L. pneumophila [2]): 10 µg/mL (≈ 39.9 µM)
- inhibition of intracellular growth (CFU) [10]: one log; also recorded: partially inhibited
- GFZ concentration at which no growth was seen on the CYE plates (L. pneumophila [11]): 400 µg/mL
- bacteriocidal or bacteriostatic (L. pneumophila [11]): bacteriostatic
- inhibition of intracellular growth (CFU) [12]: one log; also recorded: partially inhibited
- viability of L. pneumophila infected HL-60 cells (MTT reduction) [13]: increased viability
- inhibition of intracellular growth (CFU) (F4b in HL-60 cells): one log

Structure (SMILES): CCCN(CCC)S(=O)(=O)c1ccc(C(=O)O)cc1 [Probenecid, probenecid]
- MIC (L. pneumophila [2]): 160 µg/mL (≈ 561 µM)
